We go through two compounds from patent publication US20210275624A1, “TREATMENTS FOR IMPROVING OR LESSENING IMPAIRMENT OF MITOCHONDRIAL FUNCTION” (priority 2020, published 2021).

Square brackets hold non-standard residues; d marks the D form. Peptide text beside a SMILES is read from it. Cya = N[C@@H](CS(=O)(=O)O)C(=O)O

The test system of one series is heme oxygenase-1 (HO-1). Briefly: Western blot of HO-1. Format: cell-based, human. As to conditions: for HO-1 protein level (Western blot): 8 hours. The protocol: RPE cells in triplicate wells of a 6-well plate were treated with HQ (170 μM) in the presence or absence of RSG (0.4 mM) for 8 hours. Total protein were extracted with RIPA buffer supplemented with protease inhibitors and phosphatase inhibitors, quantified with Bradford protein assay, and subjected to SDS-PAGE and Western blot as we have previously described.^21

The test system of series [1] is human RPE cells. Briefly: Flow cytometry (Annexin V / 7-AAD) cell death and light-microscopy morphology. Format: cell-based. How it is done:
Human donor eyes from a donor were obtained within 24 hrs. after death from the North Carolina Organ Donor and Eye Bank, Inc. (Winston-Salem, N.C., USA) in accordance with the provisions of the Declaration of Helsinki for research involving human tissue. Cells were grown in Eagle's minimal essential medium (MEM; Invitrogen) with 10% fetal bovine serum (FBS; Thermo Scientific) and with 1× penicillin/streptomycin (Thermo Scientific) at 37° C. in a humidified environment containing 5% CO2.
Human donor RPE cells were seeded on collagen-coated 96-well plates, 24-well plates with or without coverslips, 6-well plates (Corning-Costar Incorporated, Corning, N.Y., USA). Except for the Seahorse assay, on day 6 after plating, cells were washed twice with serum-free and phenol red-free MEM (SF-MEM), treated with HQ at a various concentrations in the presence or absence of RSG (0.4 mM) in SF-MEM for various times at 37° C. RSG co-treatment refers to the condition in which cells were treated with RSG in the presence of HQ. Control refers to the condition in which cells were not treated.
RPE cells in triplicate wells of a 6-well plate were treated with HQ (150 μM) in the presence or absence of RSG (0.4 mM) for 12 hours. Cell morphology was recorded by light microscopy, and then cells were detached with 1×TrypLE and centrifuged at 300 g for 5 minutes. Cells were re-suspended with 100 μL 1×Annexin V binding buffer, incubated with 5 μL Annexin V for 10 minutes and then 5 μL 7-AAD was added to the Annexin V mixture and incubated for additional 5 minutes. Cell death was analyzed with flow cytometry.

For series [2], the system named is human RPE cells. Briefly: RNA-seq whole transcriptome analysis. The series is classed as cell-based. As to conditions: 4 hours. How it is done:
RPE cells in sextuplicate wells of a 6-well plate were treated for 4 hours with HQ (250 μM or 300 μM) in the presence or absence of RSG (0.4 mM). Total RNA was extracted using an RNeasy Mini Kit and DNA was removed with TURBO DNA-free kit. RNA quality was measured with a Bioanalyzer (Agilent Genomics, Santa Clara, Calif., USA). RNA-seq libraries were prepared from poly-A enriched messenger RNA and sequenced by GENEWIZ (South […], NJ, USA) to generate approximately 20-30 million paired-end, 150 base-pair reads per sample. RNA-seq FASTQ files were quality-tested with FastQC. Reads were aligned with STAR to human genome (GRCh38.p12) and transcriptome ([…]30) references, followed by read-quantification with featureCounts. Principal component analysis (PCA) was used to visualize the high-dimensional RNA-seq dataset using the top 15 thousand genes that had the highest average counts, as normalized by DESeq2's VST method. […] Enriched biological processes were condensed and visualized with […] with similarity metric set to small and GO term size determined by Uniport Homo Sapiens database; biologically relevant processes were selected and labeled. Six enriched KEGG pathways were selected for visualization of gene expression changes, based on their biological relevance and strength of negative correlation between HQ and RSG co-treatment. Empirical RNA-seq Sample Size Analysis (ERSSA) was used to check whether the six biological replicates used in this study were sufficient for differential expression discovery; analysis was performed with log 2FC cutoff of 0.25 and 50 subsamples at each replicate level.

The next series concerns HMOX-1. Briefly: Real-time RT-PCR (qPCR) of HMOX-1. Format: cell-based, human. The settings on record: 4 hours. The protocol:
RPE cells in triplicate wells of a 12-well plate were treated with HQ (250 μM) in the presence or absence of RSG (0.4 mM) for 4 hours. Total RNA was isolated using RNeasy Plus Mini Kit according to the manufacturer's specifications and real-time quantitative reverse transcription-polymerase chain reaction (qPCR) was performed as we have described previously. Primer pairs for HMOX-1 and ribosomal protein, large, PO (RPLPO) were as follows (5′ to 3′): HMOX-1, forward: CAG GAG CTG ACC CAT GA; reverse: AGCAACTGTCGCCACCAGAA; RPLPO, forward: GGACATGTTGCTGGCCAATAA; reverse: GGG CCC GAG ACC AGT GTT.

Series [3] has as its system human RPE cells. Briefly: F-actin immunofluorescent staining (phalloidin), aggregate quantification. The series is classed as cell-based. The settings on record: 6 hours. How it is done:
Human donor RPE cells were seeded on collagen-coated 96-well plates, 24-well plates with or without coverslips, 6-well plates (Corning-Costar Incorporated, Corning, N.Y., USA). Except for the Seahorse assay, on day 6 after plating, cells were washed twice with serum-free and phenol red-free MEM (SF-MEM), treated with HQ at a various concentrations in the presence or absence of RSG (0.4 mM) in SF-MEM for various times at 37° C. RSG co-treatment refers to the condition in which cells were treated with RSG in the presence of HQ. Control refers to the condition in which cells were not treated. RPE cells in triplicate wells of a 24-well plate containing collagen-coated coverslips were treated for 6 hours with HQ (140 μM) in the presence or absence of RSG (0.4 mM) and then fixed in 4% paraformaldehyde for 12 minutes at room temperature (RT). Cells were permeabilized with 0.5% Triton X-100 for 12 minutes and incubated for 1 hour at RT with phalloidin-TRITC in 0.5% bovine serum albumin/0.1% Triton X-100/PBS. The percentage of F-actin aggregates was determined by a masked observer. […] For data analysis, segmented images were converted to eight-bit, binary images and F-actin aggregates were quantified using the particle analyzer function (0-infinity size and 0-1 circularity) in Fiji.

For the compound `C[C@@H](O)[C@H](NC(=O)[C@H](CS(=O)(=O)O)NC(=O)CNC(=O)[C@H](CCCNC(=N)N)NC(=O)CN)C(=O)N1CCC[C@H]1C(=O)O` [Risuteganib, Glycyl-L-arginylglycyl-3-sulfo-L-alanyl-L-threonyl-L-proline] (H-GRG[Cya]TP-OH), the “HO-1 protein level (Western blot)” value in the series on heme oxygenase-1 (HO-1) (RSG 0.4 mM co-treatment with HQ 170 μM) was “further up-regulated”. Further, the “cellular stress and HO-1 activation” value in the series on heme oxygenase-1 (HO-1) (RSG alone) is “did not induce observable cellular stress and HO-1 activation”. Further, in the series on human RPE cells [1] (RSG 0.4 mM co-treatment with HQ 150 μM), the cell morphology result is recorded as “improved HQ-induced morphological changes”. For the same compound, the “HQ-induced necrosis and apoptosis (cell death)” value with human RPE cells [1] (RSG 0.4 mM co-treatment with HQ 150 μM, 12 hours) was “significantly protected cells from HQ-induced necrosis and apoptosis”. For the same compound, the “number of live and dead cells” value with human RPE cells [1] (RSG alone 0.4 mM, 12 hours, vs control) was “little effect”. For the same compound, the “HMOX-1 gene expression increase (RNA-seq)” value in the series with human RPE cells [2] (RSG 0.4 mM co-treatment vs 250 μM HQ alone) is 241%; with human RPE cells [2] (RSG 0.4 mM co-treatment vs 300 μM HQ alone), 391%. In the series on human RPE cells [2] (RSG 0.4 mM co-treatment vs HQ alone), the “genes regulated (differential expression)” value is “regulated thousands of genes”. Besides, in the series on human RPE cells [2] (RSG alone 0.4 mM, vs control), the “number of differentially expressed (DE) genes” value is recorded as 15 genes. In addition, in the series with HMOX-1 (RSG 0.4 mM co-treatment with HQ 250 μM), the “HMOX-1 gene level (qPCR)” value was “further up-regulated”. In the series on human RPE cells [3] (RSG 0.4 mM co-treatment with HQ 140 μM), the F-actin aggregates result is listed as “significantly inhibited the production of HQ-induced aggregates”.
As for `Oc1ccc(O)cc1` [HQ, hydroquinone, reference compound], the “HO-1 protein level (Western blot)” value with heme oxygenase-1 (HO-1) (HQ 170 μM) is “significantly up-regulated”. Also, the cell morphology result with human RPE cells [1] (HQ 150 μM) is “caused cells to shrivel/detach”. In the series on human RPE cells [1] (HQ alone 150 μM, 12 hours), the “cell death (necrosis, apoptosis)” value was “induced primarily necrotic cell death and much less apoptotic cell death”. In addition, the “number of genes changed (differential expression)” value with human RPE cells [2] (HQ 250 μM or 300 μM, vs control) is on record as “approximately seven thousand”. Besides, the figures for the “HMOX-1 gene expression increase (RNA-seq)” value in the series with human RPE cells [2] (HQ 250 μM) and with human RPE cells [2] (HQ 300 μM) were 618% and 420%, respectively. In addition, the “HMOX-1 gene level (qPCR)” value in the series with HMOX-1 (HQ 250 μM) was “significantly up-regulated”. For the same compound, the “number of F-actin aggregates” value in the series with human RPE cells [3] (HQ 140 μM, vs control) was “significantly increased the number of F-actin aggregates”.
